Measurements taken from patent publication US10125167B2, “Compositions and methods for treating MRSA infections and for sensitizing MRSA to beta-lactam antibiotics” (Arizona Board of Regents on behalf of Arizona State …, priority 2015, dated 2018).
In brackets after ≈: the same amount, converted by molar mass. Like-named read-outs stand apart in the source and are kept apart here.

Experiments:
USA300-HI168 = test: Synergy of ASU014 with antibiotics (MIC/FIC); type: cell-based, S. aureus; conditions: for Antibiotic MIC, Antibiotic Only: USA300-HI168; for Antibiotic MIC +¼ MIC (ASU014) / FIC +¼ MIC (ASU014): USA300-HI168, with ¼ MIC ASU014; for Antibiotic MIC +½ MIC (ASU014) / FIC +½ MIC (ASU014): USA300-HI168, with ½ MIC ASU014
USA100 = test: Synergy of ASU014 with antibiotics (MIC/FIC); type: cell-based, S. aureus; conditions: for Antibiotic MIC, Antibiotic Only: USA100; for Antibiotic MIC +¼ MIC (ASU014) / FIC +¼ MIC (ASU014): USA100, with ¼ MIC ASU014; for Antibiotic MIC +½ MIC (ASU014) / FIC +½ MIC (ASU014): USA100, with ½ MIC ASU014; for Antibiotic MIC +⅛ MIC (ASU014) / FIC +⅛ MIC (ASU014): USA100, with ⅛ MIC ASU014
[1] = test system: MRSA (USA300) BEI: FOO3/HI168; test: MIC against a panel of Gram-positive and Gram-negative bacteria; type: cell-based, Staphylococcus aureus
MSSA UAB637 = test: Synergy of ASU014 with antibiotics (MIC/FIC); type: cell-based, S. aureus
[2] = test system: MRSA (USA500) BEI: HFH-30522; test: MIC against a panel of Gram-positive and Gram-negative bacteria; type: cell-based, Staphylococcus aureus
MRSA (USA300-LAC) = test: as above; type: cell-based, Staphylococcus aureus
[3] = test system: MRSA (USA400) BEI: HFH-30364; test: as above; type: cell-based, Staphylococcus aureus
MSSA = test: as above; type: cell-based, S. aureus
USA300-LAC = test: Synergy of ASU014 with antibiotics (MIC/FIC); type: cell-based, S. aureus
[4] = test system: MRSA (USA100) BEI: HFH-30123; test: MIC against a panel of Gram-positive and Gram-negative bacteria; type: cell-based; conditions: Staphylococcus aureus
P. aeruginosa PAO1 = test: as above; type: cell-based; conditions: Pseudomonas aeruginosa
[5] = USA300-HI168, with ⅛ MIC ASU014
[6] = Staphylococcus aureus, read-out: MIC

Antibiotic MIC, Antibiotic Only (USA300-HI168) [µg/mL]	Antibiotic MIC +¼ MIC (ASU014) (USA300-HI168) [µg/mL]	FIC +¼ MIC (ASU014) (USA300-HI168)	Antibiotic MIC +½ MIC (ASU014) (USA300-HI168) [µg/mL]	FIC +½ MIC (ASU014) (USA300-HI168)	Antibiotic MIC +⅛ MIC (ASU014) (USA300-HI168; [5]) [µg/mL]	Antibiotic MIC, Antibiotic Only (USA100) [µg/mL]	Antibiotic MIC +¼ MIC (ASU014) (USA100) [µg/mL]	FIC +¼ MIC (ASU014) (USA100)	Antibiotic MIC +½ MIC (ASU014) (USA100) [µg/mL]	FIC +½ MIC (ASU014) (USA100)	Antibiotic MIC +⅛ MIC (ASU014) (USA100) [µg/mL]	FIC +⅛ MIC (ASU014) (USA100)	SMILES	also measured
						>256	32	0.38	4	0.52	>256		CC1(C)S[C@@H]2[C@H](NC(=O)[C@H](N)c3ccc(O)cc3)C(=O)N2[C@H]1C(=O)O [Amoxicillin, amoxicillin]	MIC (USA100; Staphylococcus aureus, MRSA / USA100, this MRSA strain, antibiotic alone): > 256 µg/mL
						32	2	0.31	2	0.56	8	0.38	CCOc1ccc2ccccc2c1C(=O)N[C@@H]1C(=O)N2[C@@H]1SC(C)(C)[C@@H]2C(=O)O [Nafcillin, nafcillin]	
2	0.125	0.31	0.063	0.53	0.5		8	0.31	4	0.53	64	0.63	Cc1onc(-c2ccccc2)c1C(=O)N[C@@H]1C(=O)N2[C@@H]1SC(C)(C)[C@@H]2C(=O)O [Oxa, oxacillin]	MIC [1]: 32 µg/mL (≈ 79.7 µM); FIC +⅛ MIC (ASU014) (USA300-HI168; [5]): 0.38; Antibiotic MIC, Antibiotic Only (MSSA UAB637; MSSA UAB637): 0.125 µg/mL; Antibiotic MIC +¼ MIC (ASU014) (MSSA UAB637; MSSA UAB637, with ¼ MIC ASU014): 0.125 µg/mL; Antibiotic MIC +½ MIC (ASU014) (MSSA UAB637; MSSA UAB637, with ½ MIC ASU014): 0.125 µg/mL; Antibiotic MIC +⅛ MIC (ASU014) (MSSA UAB637; MSSA UAB637, with ⅛ MIC ASU014): 0.125 µg/mL; MIC [2]: 8 µg/mL (≈ 19.9 µM); MIC (MRSA (USA300-LAC)): 64 µg/mL (≈ 159 µM); MIC [3]: 8 µg/mL (≈ 19.9 µM); MIC (MSSA): <0.25 µg/mL; Antibiotic MIC, Antibiotic Only (USA300-LAC): 64 µg/mL; Antibiotic MIC +¼ MIC (ASU014) (USA300-LAC; with ¼ MIC ASU014): 4 µg/mL; FIC +¼ MIC (ASU014) (USA300-LAC; with ¼ MIC ASU014): 0.31; Antibiotic MIC +½ MIC (ASU014) (USA300-LAC; with ½ MIC ASU014): 4 µg/mL; FIC +½ MIC (ASU014) (USA300-LAC; with ½ MIC ASU014): 0.56; Antibiotic MIC +⅛ MIC (ASU014) (USA300-LAC; with ⅛ MIC ASU014): 8 µg/mL; FIC +⅛ MIC (ASU014) (USA300-LAC; with ⅛ MIC ASU014): 0.25

Further lines, the compound ahead of its results:

SMILES	Antibiotic MIC, Antibiotic Only (USA300-HI168) [µg/mL]	Antibiotic MIC +¼ MIC (ASU014) (USA300-HI168) [µg/mL]	FIC +¼ MIC (ASU014) (USA300-HI168)	Antibiotic MIC +½ MIC (ASU014) (USA300-HI168) [µg/mL]	FIC +½ MIC (ASU014) (USA300-HI168)	Antibiotic MIC +⅛ MIC (ASU014) (USA300-HI168; [5]) [µg/mL]	Antibiotic MIC, Antibiotic Only (USA100) [µg/mL]	Antibiotic MIC +¼ MIC (ASU014) (USA100) [µg/mL]	FIC +¼ MIC (ASU014) (USA100)	Antibiotic MIC +½ MIC (ASU014) (USA100) [µg/mL]	FIC +½ MIC (ASU014) (USA100)	Antibiotic MIC +⅛ MIC (ASU014) (USA100) [µg/mL]	FIC +⅛ MIC (ASU014) (USA100)	also measured
[H]/N=C(/N)N[C@H]1[C@H](O)[C@@H](O)[C@H](O[C@@H]2O[C@@H](C)[C@](O)(C=O)[C@H]2O[C@@H]2O[C@@H](CO)[C@H](O)[C@@H](O)[C@@H]2NC)[C@@H](N/C(N)=N\[H])[C@@H]1O [Streptomycin]	4	2	0.75	0.5	0.63	4								
O=C(O)c1cn(C2CC2)c2cc(N3CCNCC3)c(F)cc2c1=O [Cipro, Ciprofloxacin]							>32	>32		>32		>32		MIC [1, 6]: 0.5 µg/mL (≈ 1.51 µM); MIC [2, 6]: > 4 µg/mL; MIC [3, 6]: 0.5 µg/mL (≈ 1.51 µM); MIC [4]: > 4 µg/mL; MIC (MSSA; [6]): 0.25 µg/mL (≈ 0.754 µM); MIC (P. aeruginosa PAO1): 0.5 µg/mL (≈ 1.51 µM)
